Numbers after ± are expanded uncertainties.

For this data set the following is noted: 298.15 K; 101.33 kPa; Liquid; Vibrating tube method.

Take `CCCCCC[N+](C)(C)CCO.F[B-](F)(F)F` [hexyl(2-hydroxyethyl)dimethylammonium tetrafluoroborate]: the mass density is given as 1123.6 ± 6.9 kg/m3.

The values above are taken from the NIST ThermoML archive (doi:10.1021/je8007588).
